Laboratory results from PubChem BioAssay AID1845207 (Molecular Pharmacology Branch, DTP, NCI, 2023).

Tested on: NCI-H1876 tumor spheroid viability
Assay: Anticancer human tumor NCI-H1876 cell line growth inhibition;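 note: spheroids exposed to compounds for seven days before the viability read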;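 for viability, T/C: percent of DMSO vehicle control viability so 100% = vehicle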
Conditions: spheroids with HUVEC and MSC; for IC50: curve of first compound; for viability, T/C: stronger effect = lower value
Procedure, shortened: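 Complex tumor spheroids combined malignant cells with endothelial cells and mesenchymal stem cells. DNA-damaging drugs and DNA repair inhibitors were tested alone and in combination, at half-log dilutions down from clinical Cmax (top 10 microM if Cmax unknown), 0.25% DMSO final.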

Question: With CC(C)n1c(=O)n(C)c2cnc3cc(F)c(-c4ccc(OCCCN5CCCCC5)nc4)cc3c21 + COc1cc2c(cc1O)CCNC21CSC2c3c(OC(C)=O)c(C)c4c(c3C(COC1=O)N1C(O)C3Cc5cc(C)c(OC)c(O)c5C(C21)N3C)OCO4 as the compound, how does the IC50 (second compound 30 pM) read?
Answer: The IC50 was over 10000 nM.

Question: What about the IC50 (second compound 94.9 pM) of the same compound?
Answer: The IC50 was over 10000 nM.

Question: And the IC50 (second compound 0.0003 µM)?
Answer: Its IC50 is under 31.6 nM.

Question: What about the IC50 (second compound 0.000949 µM) of the same compound?
Answer: Its IC50 is under 31.6 nM.

Question: What about the IC50 (second compound 0.003 µM) of the same compound?
Answer: Its IC50 is under 31.6 nM.

Question: And the viability, T/C (second compound 30 pM, first compound 0.0316 µM)?
Answer: Its viability, T/C is 94%.

Question: And the viability, T/C (second compound 30 pM, first compound 0.1 µM)?
Answer: The viability, T/C was 93.1%.

Question: And the viability, T/C (second compound 30 pM, first compound 0.316 µM)?
Answer: Its viability, T/C is 95%.

Question: And the viability, T/C (second compound 30 pM, first compound 1 µM)?
Answer: Its viability, T/C is 95.5%.

Question: And the viability, T/C (second compound 30 pM, first compound 3.16 µM)?
Answer: The viability, T/C was 93.7%.

Question: What about the viability, T/C (second compound 30 pM, first compound 10 µM) of the same compound?
Answer: The viability, T/C was 86.7%.

Question: And the viability, T/C (second compound 94.9 pM, first compound 0.0316 µM)?
Answer: The viability, T/C was 66.3%.

Question: And the viability, T/C (second compound 94.9 pM, first compound 0.1 µM)?
Answer: Its viability, T/C is 58.5%.

Question: What about the viability, T/C (second compound 94.9 pM, first compound 0.316 µM) of the same compound?
Answer: Its viability, T/C is 49.3%.

Question: And the viability, T/C (second compound 94.9 pM, first compound 1 µM)?
Answer: The viability, T/C was 53.5%.

Question: And the viability, T/C (second compound 94.9 pM, first compound 3.16 µM)?
Answer: The viability, T/C was 55.2%.

Question: And the viability, T/C (second compound 94.9 pM, first compound 10 µM)?
Answer: The viability, T/C was 46.8%.

Question: What about the viability, T/C (second compound 0.0003 µM, first compound 0.0316 µM) of the same compound?
Answer: Its viability, T/C is 10.7%.

Question: And the viability, T/C (second compound 0.0003 µM, first compound 0.1 µM)?
Answer: Its viability, T/C is 9.04%.

Question: And the viability, T/C (second compound 0.0003 µM, first compound 0.316 µM)?
Answer: Its viability, T/C is 11%.

Question: And the viability, T/C (second compound 0.0003 µM, first compound 1 µM)?
Answer: The viability, T/C was 9.85%.

Question: What about the viability, T/C (second compound 0.0003 µM, first compound 3.16 µM) of the same compound?
Answer: The viability, T/C was 12.3%.

Question: And the viability, T/C (second compound 0.0003 µM, first compound 10 µM)?
Answer: The viability, T/C was 9.65%.

Question: What about the viability, T/C (second compound 0.000949 µM, first compound 0.0316 µM) of the same compound?
Answer: The viability, T/C was 2.08%.

Question: What about the viability, T/C (second compound 0.000949 µM, first compound 0.1 µM) of the same compound?
Answer: The viability, T/C was 1.93%.

Question: What about the viability, T/C (second compound 0.000949 µM, first compound 0.316 µM) of the same compound?
Answer: The viability, T/C was 1.77%.

Question: And the viability, T/C (second compound 0.000949 µM, first compound 1 µM)?
Answer: The viability, T/C was 1.8%.

Question: What about the viability, T/C (second compound 0.000949 µM, first compound 3.16 µM) of the same compound?
Answer: Its viability, T/C is 2.69%.

Question: And the viability, T/C (second compound 0.000949 µM, first compound 10 µM)?
Answer: The viability, T/C was 2.47%.

Question: What about the viability, T/C (second compound 0.003 µM, first compound 0.0316 µM) of the same compound?
Answer: The viability, T/C was 0.9%.

Question: And the viability, T/C (second compound 0.003 µM, first compound 0.1 µM)?
Answer: The viability, T/C was 0.67%.

Question: And the viability, T/C (second compound 0.003 µM, first compound 0.316 µM)?
Answer: The viability, T/C was 0.58%.

Question: And the viability, T/C (second compound 0.003 µM, first compound 1 µM)?
Answer: The viability, T/C was 0.77%.

Question: And the viability, T/C (second compound 0.003 µM, first compound 3.16 µM)?
Answer: Its viability, T/C is 0.63%.

Question: And the viability, T/C (second compound 0.003 µM, first compound 10 µM)?
Answer: Its viability, T/C is 1.09%.
